According to patent publication US9814714B2, “Kinase modulation, and indications therefor” (Plexxikon Inc., priority 2015, dated 2017):
Like-named read-outs stand apart in the source and are kept apart here.

Columns and labels:
[1] = test system: pERK in B9 cells (HRAS^Q61L); test: Phospho-ERK AlphaScreen assay, pERK activation in B9; type: cell-based, murine; conditions: Mus musculus
Description: (§1) Phospho-ERK AlphaScreen® assay: The degree of ERK phosphorylation was determined using an AlphaScreen® assay where an increase in ERK1/2 phosphorylation at Thr202/Tyr204 brought the donor and acceptor AlphaScreen® beads into close proximity, generating a signal for quantification. To determine the effects of compound treatment on phosphorylation of ERK1/2, cells were plated in a 96-well plate and treated with an 8-point titration of compound for one hour at 37° C. before lysis. To detect pERK, cell lysates were incubated with streptavidin-coated AlphaScreen® donor beads, anti-mouse IgG AlphaScreen® acceptor beads, a biotinylated anti-ERK1/2 rabbit antibody, and a mouse antibody that recognizes ERK1/2 only when it is phosphorylated on Thr202 and Tyr204. The biotinylated ERK1/2 antibody binds to both the streptavidin-coated AlphaScreen® donor beads and to ERK1/2 (regardless of its phosphorylation state), and the phospho-ERK1/2 antibody binds to the acceptor beads and to ERK1/2 that is phosphorylated at Thr202/Tyr204. An increase in ERK1/2 phosphorylation at Thr202/Tyr204 brings the donor and acceptor AlphaScreen® beads into close proximity, generating a signal that can be quantified on an EnVision reader (Perkin Elmer).
(§2) Using AlphaScreen® technology, the ability of Formula I to affect the phosphorylation of ERK and MEK in the cells was measured quantitatively. Following treatment with compound, the cells were lysed, and a sample of the lysate was transferred to an assay plate. The lysate was mixed with antibodies directed against total ERK/MEK, antibodies that recognize specific phosphorylation sites on ERK/MEK, AlphaScreen® anti-mouse IgG Acceptor beads, and Streptavidin Donor beads. Upon excitation of the donor beads with laser light at 680 nm, singlet oxygen was produced. This singlet oxygen was rapidly quenched, unless the AlphaScreen® Acceptor beads were in close proximity, in which case a proximity signal can be measured at 580 nm. In the presence of phosphorylated ERK/MEK, there is a very strong proximity signal.
(§3) 1. One day before the assay, 50,000 cells were plated in each well of a 96-well tissue-culture-treated plate (Corning #3610) in a 50 μL volume. Cells were incubated at 37° C. overnight.
(§4) 2. Compounds were diluted in DMSO to 500× final concentration. Each compound was plated as an 8-point titration, using 1:3 dilutions in DMSO. The maximum concentration was about 5 mM.
(§5) 3. 1 μl of compound was added to each well of a 96-well polypropylene plate (Corning #3363). For A375, COLO829, SK-MEL-3, HCT116, and HT-29, the high control was DMSO, and the low control was 10 μM PLX4720 (CAS No. 918505-84-7). For B9 and IPC-298, the high control was 3.33 μM PLX4720, and the low control was DMSO. 4. 249 μL growth media was added to compounds, diluting them 250-fold. 5. […] The compound was incubated with the cells at 37° C. for one hour. 6. The media was aspirated, and the cells were lysed in 50 μL of ice-cold 1× Cell Lysis buffer. The plates were incubated on ice for 5 minutes to allow complete lysis of the cells. 7. A mixture of biotinylated donor antibody, acceptor antibody, and anti-mouse IgG AlphaScreen® acceptor beads in 1× AlphaLISA immunoassay buffer was prepared. 8. 5 μL of lysate was transferred to a 384-well assay plate (Perkin Elmer #6005359). 5 μL of the antibody and acceptor bead mixture was added. The plates were spinned.

[2] = test system: pERK in IPC-298 cells (NRAS^Q61L); test: Phospho-ERK AlphaScreen assay, pERK activation in IPC-298; type: cell-based, human; conditions: for EC50: Homo sapiens
Description: as §1, §2, §3, §4, §5

[3] = test system: phospho-ERK1/2 (T202/Y204, pERK) in RAS mutant and BRAF^V600E cell lines; test: pERK screen in cell line panel: ERK pathway inhibition index (EPII); type: cell-based; conditions: for pERK activation in RAS mutant cell lines (in words): at the concentrations tested; for ERK pathway inhibition index (EPII): ratio between mean pERK activation EC50 (B9, IPC-298, HCT116) and mean pERK inhibition IC50 (A375, COLO829)
Description: as §1

A375 cells = test: Growth inhibition assay (CellTiter-Glo), A375; type: cell-based; conditions: Homo sapiens
Description: Growth inhibition assay: Cells were plated into a 96-well plate at a density of 3000 cells per well and allowed to adhere overnight. Compounds were dissolved in DMSO, diluted 3-fold to create an 8-point titration and added to cells. After a 72-hour incubation, cell viability was examined using CellTiter-Glo® (Promega).
In order to determine the effects of Formula I on proliferation, a growth assay was established using melanoma cells (A375 and COLO829) and colorectal carcinoma cells (COLO205, HT-29) which each express the BRAFV600E mutation. To show selectivity over wild-type BRAF, several BRAF wild-type cell lines (K562, NOMO-1, MV-4-11 and ML-2) were also examined in the growth assay. The growth assay implemented the Promega CellTiter-Glo Luminescent Cell viability assay, which gives a luminescent readout that is proportional to the amount of ATP present in a cell sample. As ATP levels directly correlate with the number of viable cells, the luminescent signal can be used to determine the potency of Formula I to block the proliferation of the cell lines of interest.
1. 3,000 cells were plated in each well for cell lines A375, COLO205, COLO829, HT-29, and SK-MEL-3. 25,000 cells were plated in each well for cell lines K562, ML-2, MV-4-11, and
NOMO-1 of a 96-well tissue-culture-treated plate (Corning #3610) in a 50 μL volume. Cells were incubated overnight at 37° C.
2. Each test compound was plated as an 8-point titration, using 1:3 dilutions in DMSO. The maximum concentration was about 5 mM. Dilute DMSO and test compound of Formula I 1:250 in growth media.
3. 50 μL of the diluted compound was transferred into 50 μL cells, for a 500-fold final compound dilution (maximum concentration is typically 10 μM and DMSO concentration is 0.2%). The cells were incubated with DMSO/compound for 3 days at 37° C. in 5% CO2.
4. Cell Titer-Glo Luminescent Assay Reagent was brought to room temperature and reconstituted as directed in the product manual. The cell cultures were also brought to room temperature for about 20-30 minutes. […] Luminescence was measured on a Tecan Safire plate reader. […]

[4] = B9, HRAS^Q61L, concentration increasing pERK to 50% compared to positive control 10 μM PLX4720, read-out: pERK activation EC50 B9
[5] = read-out: pERK activation Mean EC50, B9
[6] = IPC-298, read-out: pERK activation Mean EC50, IPC-298
[7] = IPC-298, NRAS^Q61L, concentration increasing pERK to 50% compared to positive control 10 μM PLX4720, read-out: pERK activation EC50 IPC298
[8] = A-375, 72-hour incubation, read-out: In vitro growth inhibition IC50, A375

EC50 [1, 4] [nM] | EC50 [2, 7] [µM] | IC50 (A375 cells; [8]) [nM] | SMILES | EC50 [1, 5] [nM] | EC50 [2, 6] [µM] | pERK activation in RAS mutant cell lines (in words) [3] | ERK pathway inhibition index (EPII) [3] | IC50 (A375 cells; A-375, 72 h, Table 4, melanoma, BRAF V600E, RAS WT, 3 days, read-out: Growth IC50 A375) [nM] | MAPK signaling / pERK increase in IPC-298 (in words) ([2]; FIG. 1(B), NRAS^Q61L)
> 200000 | > 200 | 170 | CCN(C)S(=O)(=O)Nc1ccc(F)c(C(=O)c2c[nH]c3ncc(-c4cnc(C5CC5)nc4)cc23)c1F [Formula II, 5-(2-cyclopropylpyrimidin-5-yl)-3-[3-[[ethyl(methyl)sulfamoyl]amino]-2,6-difluoro-benzoyl]-1H-pyrrolo[2,3-b]pyridine] |  |  | essentially no pERK activation | >50,000 |  | negligible pERK increase
360 | 0.54 | 330 | CCCS(=O)(=O)Nc1ccc(F)c(C(=O)c2c[nH]c3ncc(-c4ccc(Cl)cc4)cc23)c1F [Vemurafenib, vemurafenib, reference compound] | 560 | 0.84 |  |  |  | 

SMILES | EC50 [1, 4] [nM] | EC50 [2, 7] [µM] | IC50 (A375 cells; [8]) [nM] | EC50 [1, 5] [nM] | EC50 [2, 6] [µM] | pERK activation in RAS mutant cell lines (in words) [3] | ERK pathway inhibition index (EPII) [3] | IC50 (A375 cells; A-375, 72 h, Table 4, melanoma, BRAF V600E, RAS WT, 3 days, read-out: Growth IC50 A375) [nM] | MAPK signaling / pERK increase in IPC-298 (in words) ([2]; FIG. 1(B), NRAS^Q61L)
O=C(c1c(F)ccc(NS(=O)(=O)N2CC[C@@H](F)C2)c1F)c1c[nH]c2ncc(-c3cnc(C4CC4)nc3)cc12 [Formula I, (3R)—N-[3-[5-(2-cyclopropylpyrimidin-5-yl)-1H-pyrrolo[2,3-b]pyridine-3-carbonyl]-2,4-difluorophenyl]-3-fluoropyrrolidine-1-sulfonamide] | > 200000 | > 200 |  | ≥ 10000 | 10 | essentially no pERK activation | >10,000 | 50 | 
